Laboratory results: patent US20110178154A1, “GENE EXPRESSION PROFILE THAT PREDICTS OVARIAN CANCER SUBJECT RESPONSE TO CHEMOTHERAPY” (priority 2007, published 2011)
d = 2'-deoxy (DNA); r = 2'-OH (RNA)

Tests used:
[1] = test system: A2780CP20 ovarian cancer cell line; experiment: MTS proliferation assay: cisplatin sensitivity after siRNA pretreatment; type: cell-based; conditions: for fold change in cisplatin sensitivity: A2780CP20 cells, compared to siNEG
Procedure: Cell culture and RNA interference. Ovarian cancer cell lines were routinely maintained in medium supplemented with 10% fetal bovine serum and 2 mM L-glutamine. SKOV3 and OVCAR3 cell lines were maintained in RPMI-1640 medium, OVCA420 and OVCA432 were maintained in 105/199 medium and OVCA420 and CAOV3 cells were maintained in DMEM medium. For 3-(4,5-dimethylthiazol-2-yl)-5-(3-carboxymethoxyphenyl)-2-(4-sulfophenyl)-2H-tetrazolium (MTS) assays, transfections mediated by cationic lipid were performed in 96-well plates. Cells were seeded on a complex of the appropriate siRNA (QIAGEN® Inc., Germantown, Md.) and Oligofectamine (Invitrogen, Carlsbad, Calif.) in unsupplemented growth medium. Final amounts in each well were 50 nM siRNA, 0.5 ul Oligofectamine, and 3000 cells in 100 μL medium. The siRNA target sequences of the synthetic siRNAs were designed against the reference RNA sequence.
MTS proliferation assay. Cell line sensitivity to chemotherapeutic reagents such as cisplatin or taxol was determined by measuring formazan production from MTS (PROMEGA®, Madison, Wis.), with drug concentrations tested in octuplicates in each experiment. For example, serial dilutions of cisplatin or taxol were made shortly before addition to cells. At 48 hours after transfection and seeding, cells were washed by aspiration of the supernatant, and 150 uL of drug-containing medium is added. Another 48 hours later, the drug solution was aspirated and 120 uL MTS-containing medium is added according to the manufacturer's protocol (PROMEGA® #G3580, Madison, Wis.). The plates were incubated at 37° C. and read at 490 nm after 3 hours. Using GraphPad PRISM® 4.02 (GraphPad Software Inc., San Diego, Calif.), the drug concentrations were log-transformed and nonlinear regression is performed on the A490 data using the sigmoidal dose response model with variable slope. Mean EC50 values, standard errors, and 95% confidence intervals were determined from the logistic fits.
(§1) As described above in Example 1, A2780CP20 ovarian cancer cell lines were transfected with siPOLH-2 or siPOLH-5, treated with cisplatin starting 48 hours later, and assayed with MTS 48 hours thereafter. Viable cell number data was acquired by reading the fluorescence emissions at 490 nm. Using GraphPad Prism 4.02, cisplatin drug concentrations were log-transformed and nonlinear regression performed on the A490 data using the sigmoidal dose response model with variable slope to generate the IC50 curves. IC50 values and 95% confidence intervals were determined from the logistic fits.
as §1, with “A2780CP20” for “As described above in Example 1, A2780CP20”, “siREV3L-1” for “siPOLH-2”, “siREV3L-2,” for “siPOLH-5,”, “thereafter (as described above, including Example 1).” for “thereafter.”, “fits. […] Further, a 2.1 fold change in cisplatin sensitivity was detected for siREV3L-1 pretreatment and a 2.9 fold change in such sensitivity for siREV3L-2 pretreatment.” for “fits.”
as §1, with “FIG. 5 illustrates the effect of pretreatment with RNAi against POLH and REV3L on cisplatin resistance.” for “As described above in Example 1,”, “cotransfected” for “transfected”, “siPOLH-5 and siREV3L-2,” for “siPOLH-2 or siPOLH-5,”

POLH = experiment: Western blot analysis for POLH after POLH siRNA treatment; type: cell-based; conditions: lysates at 24, 48, 72 and 96 hours; 5 ul of 1 ug/ul POLH-siRNA
Procedure: Cell lysates were collected and examined by Western blot analysis for POLH. After treating cells with 5 ul of 1 ug/ul POLH-siRNA, lysates were collected at 24, 48, 72 and 96 hours and then analyzed for down-regulation of POLH.

Substance	cell sensitivity to cisplatin when compared to cells treated with siNEG [1]	fold change in cisplatin sensitivity [1] [fold]	POLH expression (down-regulation of POLH) (POLH)
siREV3L-1: synthetic siRNA against REV3L (exon 18), Qiagen cat #SI00045626, SEQ ID NO:2 sense and SEQ ID NO:3 antisense (sense GGAUGUAGUCAAACUGCAATT; antisense UUGCAGUUUGACUACAUCCAG; sugars from the 5' end r19 d2, backbone not given here)	significantly increased	2.1	–
siREV3L-2: synthetic siRNA against REV3L (exon 17), Qiagen cat #SI00045633, SEQ ID NO:5 sense and SEQ ID NO:6 antisense (sense CACUGGAAUUAAUGCACAATT; antisense UUGUGCAUUAAUUCCAGUGTG; sugars from the 5' end r19 d2, backbone not given here)	significantly increased	2.9	–
siPOLH-2: synthetic siRNA against POLH (exon 10), Qiagen cat #SI00089012, SEQ ID NO:8 sense and SEQ ID NO:9 antisense (sense CCAUUUAGGUGCUGAGUUATT; antisense UAACUCAGCACCUAAAUGGAG; sugars from the 5' end r19 d2, backbone not given here)	significantly increased	1.6	–
siPOLH-5: synthetic siRNA against POLH (exon 11), Qiagen cat #SI02663619, SEQ ID NO:11 sense and SEQ ID NO:12 antisense (sense GGUUGUGAGCAUUCGUGUATT; antisense UACACGAAUGCUCACAACCTG; sugars from the 5' end r19 d2, backbone not given here)	significantly increased	1.9	inhibit POLH RNA expression
